Earlier results as cited in patent US9012467B2, “Compositions for intratumoral administration” (Covidien LP, priority 2009, dated 2015).

Test system: mice
Details: acute toxicity

For COC(=O)C1=CO[C@@H](O)[C@@H]2C(CO)=CC[C@H]12 [Genipin, genipin], the LD50 i.v. is given as 382 mg/k.
